Data: patent US8029831B2, “Formulations containing thymoquinone for urinary health” (Bionexus, Ltd., priority 2008, dated 2011)
In brackets after ≈: the same amount, converted by molar mass. Read-outs that look alike come from different tables or passages of the source. Values belong to the molecule of their own block, whether it stands above or below them.

Assays:
[1] = tested on: iNOS biosynthesis of NO in C2C12 myocytes; test: Inhibition of LTI (LPS/TNFα/IFγ)-stimulated iNOS biosynthesis of NO in C2C12 myocytes; type: cell-based, murine; conditions: Mus musculus
Text: The Model—The C2C12 murine myocyte model was used in this Example. This model was selected to serve as the surrogate for muscle cells of the bladder that are exposed to the inflammatory stimuli of the invading bacteria, modeled by lipopolysaccharide (LPS), as well as the counter-inflammatory responses of the bladder infiltrating macrophage, modeled by interferon gamma (IFγ) and tumor necrosis factor alpha (TNFα). […] A significant increase in baseline NO production in cats with feline interstitial cystitis compared with that in healthy cats has been found in smooth muscle and mucosal strips.
(§1) Cell culture and treatment—Mouse C2C12 myoblasts (American Type Culture Collection, Manassas, Va.) were maintained in Dulbecco's modified Eagle's medium (DMEM) supplemented with 10% fetal calf serum (FCS), 50 units/ml penicillin and 50 μg/ml streptomycin. As cells reached confluence, the medium was switched to the differentiation medium containing DMEM and 2% horse serum. Medium was changed every other day. After 4 additional days, the differentiated C2C12 cells had fused into myotubes, which were then treated in serum-free DMEM with either vehicle alone (0.1% DMSO), or 50, 10, 5, or 1 μg thymoquinone/mL for 1 hour and then stimulated with a cytokine mixture containing 1 μg LPS/mL, 50 ng TNFα/mL and 100 U IFγ/mL (LTI) for 20 hours. At the end of the treatment period, media were sampled for determination of NO.
Nitric oxide determination—NBD methylhydrazine (NBDM, N-methyl-4-hydrazino-7-nitrobenzofurazan) was used to detect N-methyl-4-amino-7-nitrobenzofuazan, the fluorescent product of the NBDM reagent with nitrite (Buldt A, Karst U. Determination of nitrite in waters by microplate fluorescence spectroscopy and HPLC with fluorescence detection. Anal Chem. Aug. 1, 1999; 71(15):3003-3007). In a separate, black-walled, 96-well, microtiter plate, a 7 μL aliquot of a 4.8×10^−4 mol NBDM/L solution was added to 200 μL of the supernatant media followed by the addition of 15 μL of concentrated phosphoric acid. After a reaction time of 30 minutes at ambient temperature, the fluorescence was read with 485 nm excitation filter and a 530 nm emission filter in a Packard Fluorocount spectrofluorometer (Model#BF10000, Meridan, Conn.). Fluoresence was linear in the range of 3.59×10^−7 to 1.44×10^−5 mol nitrite/L. The standard deviation was 3.5 percent for 1.44×10^−6 mol nitrite/L. Experiments were performed a minimum of three times with eight replicates per dose, capturing the median inhibitory concentration (IC50) when possible.
Calculations—The median inhibitory concentrations (IC50) and 95% confidence interval were calculated using CalcuSyn (BIOSOFT, Ferguson, Mo.). This statistical package performs multiple drug dose-effect calculations using the Median Effect methods described by Chou and Talalay [Chou T C, Talalay P. Quantitative analysis of dose-effect relationships: the combined effects of multiple drugs or enzyme inhibitors. Adv Enzyme Regul. 1984; 22:27-55].
The Model—The C2C12 murine myocyte model as described in Example 1 was used.
as §1, with “units/mL” for “units/ml”, “μg/mL of the thymoquinone test formulation” for “μg thymoquinone/mL”, “IFγ/mL” for “IFγ/mL (LTI)”, “NO. […]” for “NO.”

[2] = 1500 to 3000 mg/day in humans, 19 subjects, reduced from 7.5; Jarrar 1996; cited from earlier work
[3] = tested on: NO production in LPS-stimulated macrophages; conditions: single stimulating agent, El-Mahmoudy 2002; cited from earlier work
[4] = pure compounds from Sigma, LTI-stimulated C2C12 myocytes as in Example 1, read-out: median inhibitory concentration

IC50 [1, 4]: ≥ 10 mg/L
SMILES: CC=Cc1ccc(OC)cc1 [anethole]

SMILES: CSCC[C@H](N)C(=O)O [Methionine]
mean pH values of the urine after treatment [2]: 5.5

IC50 [1, 4]: ≥ 10 mg/L
SMILES: Cc1ccc(C(C)C)cc1 [cymene]

IC50 [1, 4]: ≥ 10 mg/L
SMILES: Cc1ccc(C(C)C)c(O)c1 [thymol]

IC50 ([1]; C2C12 myotubes, 1 h pre-treatment, then LPS/TNFα/IFγ mixture for 20 h, 95% confidence interval 1.1 to 2.3 μg/mL, read-out: median inhibitory concentration of iNOS-mediated NO production): 1.6 mg/L (≈ 9.74 µM)
IC50 ([1]; LTI-stimulated C2C12 myocytes, adjusted for thymoquinone content, brackets = 95% confidence interval, read-out: Adjusted iNOS (IC50)): 1.6 mg/L (≈ 9.74 µM)
SMILES: CC1=CC(=O)C(C(C)C)=CC1=O [thymoquinone]
IC50 inhibiting NO production [3]: 1.4 to 2.8 mg/L

SMILES: Cc1ccc(C(C)C)cc1O [carvacrol]
IC50 ([1]; C2C12, read-out: median inhibitory concentration): ≥ 10 mg/L
